What all share (assay type): in vivo
Experiment [1] relates to Phaedon cochleariae larvae. In words: Critical concentration test / root-systemic action (cabbage, soil treatment). The protocol: (§1) Critical Concentration Test/Root-Systemic Action
To produce a suitable preparation of active compound, 1 part by weight of active compound is mixed with the stated amount of solvent, the stated amount of emulsifier is added and the concentrate is diluted with water to the desired concentration.
The active compound preparation is mixed intimately with soil. The concentration of the active compound in the preparation is of virtually no importance, only the amount by weight of active compound per unit volume of soil, which is given in ppm (=mg/l), being decisive. The treated soil is filled into 500 ml pots, 8 cabbage seeds are placed at a depth of approximately 1 cm, the hole is filled and the soil surface is pressed down gently.
After a further 3 days, the test is evaluated by estimating the leaf-feeding in the treated and in the untreated plant. The effect is 100% if, compared with the untreated control, only […] feeding damage is observed; it is 0% when the entire cabbage has been eaten.

The next experiment relates to Myzus persicae. In words: Critical concentration test, foliar insecticidal activity against sucking pests (leaf dip, cabbage). Conditions: Myzus persicae on cabbage. An excerpt: Activity of Folia-Insecticidal Formulations Against Sucking Pests
The insecticidal activity was examined using the critical concentration test. From each of the test preparations, an aqueous dilution series is made by diluting the individual concentrations by the factor 5.
To determine any synergistic activity, weakly active concentrations of chloronicotinyl compounds are combined with various active compound concentrations of Tracer (Spinosad).
The test plants used are cabbage plants at the one-leaf stage which are infested by Myzus persicae (green peach aphid). The shoots or leaves with the aphids are dipped for approximately 3 seconds into the respective liquors. The experiments are subsequently placed in a greenhouse at 21° C. and 65% relative atmospheric humidity.
Evaluation for mortality is carried out after 2 and 7 days.

The test system of the next experiment is Aphis fabae. The experiment is described as follows: Critical concentration test / root-systemic action (broad beans, soil treatment). Conditions: 0.035 ppm in soil. The method, then: as §1
To produce a suitable preparation of active compound, 1 part by weight of active compound is mixed with a stated amount of solvent, the stated amount of emulsifier is added and the concentrate is diluted with water to the desired concentration.
The active compound preparation is mixed intimately with soil. The concentration of the active compound in the preparation is of virtually no importance, only the amount by weight of active compound per unit volume of soil, which is given in ppm (=mg/l), being decisive. The treated soil is filled into 250 ml pots and the pots are planted with pre-germinated broad beans. In this manner, the active compound can be taken up from the soil by the roots of the plants and transported into the leaves.
After a further 7 days, the test is evaluated by estimating the dead animals. The root-systemic effect of the active compound is deduced from the destruction figures. It is 100% when all the test animals have been killed and 0% when just as many test insects are still alive as in the untreated control.

Where [2] appears, read: compound (III) alone 0.00016% a.i., evaluation after 2 days.
Setting [3] is: compound (III) alone 0.00016% a.i., evaluation after 7 days.
Setting [4] is: compound (III) alone 0.0008% a.i., evaluation after 2 days.
Where [5] appears, read: compound (III) alone 0.0008% a.i., evaluation after 7 days.

Consider `C/C(=N\C#N)N(C)Cc1ccc(Cl)nc1` [Compound (IIIe)], for which the “Degree of destruction in % at active compound concentrations” value (from here on “Degree of destruction in %”) in experiment [1] (5.00 ppm in soil) came to 5.00 ppm = 0%.
Consider `CN/C(=N\[N+](=O)[O-])NCc1cnc(Cl)s1` [Compound (IIIk)], for which the “Degree of destruction in %” value in experiment [1] (0.30 ppm in soil) was found to be 0.30 ppm = 0%. For the same molecule, the kill with Myzus persicae (setting [2]) was 10%; with Myzus persicae (setting [3]) it was 2%; with Myzus persicae (setting [4]) it was 48%; in the experiment on Myzus persicae (setting [5]) it was 28%.
As for `O=[N+]([O-])/N=C1\NCCN1Cc1ccc(Cl)nc1` [Compound (IIIa)], the “Degree of destruction in %” value was determined as 0.035 ppm = 50% in the experiment on Aphis fabae and 1.25 ppm = 0% in experiment [1] (1.25 ppm in soil). For the same molecule, the kill in the experiment on Myzus persicae (setting [2]) is listed as 18%; in the experiment with Myzus persicae (setting [3]) it was 2%; in the experiment on Myzus persicae (setting [4]), 90%; in the experiment on Myzus persicae (setting [5]), 78%.
For `CN1COCN(Cc2cnc(Cl)s2)/C1=N/[N+](=O)[O-]` [Compound (IIIg)], the “Degree of destruction in %” value in experiment [1] (0.30 ppm in soil) is 0.30 ppm = 50%. The kill amounted to 0% in the experiment with Myzus persicae (setting [2]), 0% in the experiment with Myzus persicae (setting [3]), 79% in the experiment on Myzus persicae (setting [4]) and 70% in the experiment on Myzus persicae (setting [5]).
Turning to `N#C/N=C1\SCCN1Cc1ccc(Cl)nc1` [Compound (III l)], the “Degree of destruction in %” value in experiment [1] (2.50 ppm in soil) stood at 2.50 ppm = 0%. For the same molecule, the kill with Myzus persicae (setting [2]) came out at 8%; in the experiment on Myzus persicae (setting [3]), 0%; in the experiment with Myzus persicae (setting [4]), 85%; in the experiment on Myzus persicae (setting [5]) it was 38%.
